Experimental findings from the NIST ThermoML archive (doi:10.1021/je0499723) are described below.

The conditions of data set [1]: Liquid; for Critical pressure: Direct measurement; for Critical temperature: Visual observation in an unstirred cell.
Data set [2] can be described thus: xn = mol fraction of the nth substance listed. The settings on record: Liquid.

Molecules are shown by their SMILES. Numbers after ± are expanded uncertainties.

Consider `FC(C(F)(F)F)C(F)(F)F` [1,1,1,2,3,3,3-heptafluoropropane], for which, in data set [1], the Critical density was 598 ± 14 kg/m3, the Critical pressure is on record as 2930 ± 12 kPa and the Critical temperature worked out at 375 ± 0.16 K.
Take `FC(C(F)(F)F)C(F)(F)F` [1,1,1,2,3,3,3-heptafluoropropane] + COC(F)(F)F: the Critical density in data set [2] (x2 = 0) was 598 ± 14 kg/m3.
For the molecule `FC(F)C(F)C(F)(F)F` (stereo not drawn) [1,1,1,2,3,3-hexafluoropropane], in data set [1], the Critical density was 562 ± 13 kg/m3, the Critical pressure was determined as 3416 ± 12 kPa and the Critical temperature is recorded as 412.41 ± 0.16 K.
Consider `FC(F)C(F)C(F)(F)F` (stereo not drawn) [1,1,1,2,3,3-hexafluoropropane] + COC(F)(F)F, for which the Critical density is listed as 562 ± 13 kg/m3 in data set [2] (x2 = 0); 545 ± 13 kg/m3 in data set [2] (x2 = 0.2452); 541 ± 13 kg/m3 in data set [2] (x2 = 0.3348); 518 ± 12 kg/m3 in data set [2] (x2 = 0.5434); 497 ± 12 kg/m3 in data set [2] (x2 = 0.7338); 476 ± 11 kg/m3 in data set [2] (x2 = 0.8497).
In the case of `FCC(F)(F)F` [1,1,1,2-tetrafluoroethane], in data set [1], the Critical density amounted to 508 ± 12 kg/m3, the Critical pressure was determined as 4053 ± 12 kPa and the Critical temperature stood at 374.13 ± 0.16 K.
Take `FCC(F)(F)F` [1,1,1,2-tetrafluoroethane] + COC(F)(F)F: the Critical density in data set [2] (x2 = 0) stood at 508 ± 12 kg/m3.
In the case of `FC(F)C(F)(F)F` [pentafluoroethane], in data set [1], the Critical density was found to be 560 ± 13 kg/m3, the Critical pressure is recorded as 3617 ± 12 kPa and the Critical temperature is reported as 339.2 ± 0.16 K.
With `FC(F)C(F)(F)F` [pentafluoroethane] + COC(F)(F)F, the Critical density in data set [2] (x2 = 0) is 560 ± 13 kg/m3.
As to `COC(F)(F)F` [trifluoromethoxymethane], in data set [1], the Critical density was 459 ± 11 kg/m3, the Critical pressure amounted to 3640 ± 12 kPa and the Critical temperature was found to be 377.92 ± 0.16 K.
For `COC(F)(F)F` [trifluoromethoxymethane] + FC(C(F)(F)F)C(F)(F)F, the Critical density in data set [2] (x1 = 0.1647) worked out at 574 ± 13 kg/m3; in data set [2] (x1 = 0.3999) it was 543 ± 13 kg/m3; in data set [2] (x1 = 0.4999), 526 ± 12 kg/m3; in data set [2] (x1 = 0.6664) it was 508 ± 12 kg/m3; in data set [2] (x1 = 0.8165), 486 ± 11 kg/m3; in data set [2] (x1 = 1) it was 459 ± 11 kg/m3.
Regarding `COC(F)(F)F` [trifluoromethoxymethane] + FC(F)C(F)(F)F, the Critical density in data set [2] (x1 = 0.1859) is recorded as 555 ± 13 kg/m3; in data set [2] (x1 = 0.3073), 523 ± 12 kg/m3; in data set [2] (x1 = 0.5185), 515 ± 12 kg/m3; in data set [2] (x1 = 0.7094), 491 ± 11 kg/m3; in data set [2] (x1 = 0.8305), 479 ± 11 kg/m3; in data set [2] (x1 = 1) it was 459 ± 11 kg/m3.
Turning to `COC(F)(F)F` [trifluoromethoxymethane] + FC(F)C(F)C(F)(F)F, the Critical density in data set [2] (x1 = 1) is given as 459 ± 11 kg/m3.
On to `COC(F)(F)F` [trifluoromethoxymethane] + FCC(F)(F)F, for which the Critical density in data set [2] (x1 = 0.1649) is listed as 508 ± 12 kg/m3; in data set [2] (x1 = 0.2914) it was 492 ± 11 kg/m3; in data set [2] (x1 = 0.4897), 486 ± 11 kg/m3; in data set [2] (x1 = 0.6543), 480 ± 11 kg/m3; in data set [2] (x1 = 0.8151), 468 ± 11 kg/m3; in data set [2] (x1 = 1), 459 ± 11 kg/m3.
